± gives the expanded uncertainty stated by the source.

The conditions of the data set: Crystal.
Take `CCCCCCCCCC(=O)O` [decanoic acid]: the Normal melting temperature came to 31.27 ± 1.2 °C. As for `CCCCCCCCCCCC(=O)O` [dodecanoic acid], the figure is 43.79 ± 1.2 °C; as for `CCCCCCCCCCCCCCCC(=O)O` [hexadecanoic acid], 62.29 ± 1.2 °C; as for `CCCCCCCCCCCCCCCCCC(=O)O` [octadecanoic acid], 68.76 ± 1.2 °C. As for `CCCCCCCCCCCCCC(=O)O` [tetradecanoic acid], the figure is 54.33 ± 1.2 °C.

For the origin of these results see the NIST ThermoML archive (doi:10.1021/je060146z).
